Reference: ChEMBL document CHEMBL5143638, “Natural aloe emodin-hybridized sulfonamide aminophosphates as novel potential membrane-perturbing and DNA-intercalating agents against Enterococcus faecalis” (Bioorg Med Chem Lett, 2022)
In brackets after ≈: the same amount, converted by molar mass. Activity calls are given as the source filed them. The calls are words filed in the database; no cut-off is given here.

Key:
Escherichia coli [1] = test: Antibacterial activity against Escherichia coli assessed as inhibition of bacterial growth measured after 24 hrs by CLSI based broth microdilution method; format: functional
Staphylococcus aureus [2] = test: Antibacterial activity against methicillin-resistant Staphylococcus aureus N315 assessed as inhibition of bacterial growth measured after 24 hrs by CLSI based broth microdilution method; format: functional
Staphylococcus aureus [3] = test: Antibacterial activity against Staphylococcus aureus ATCC 25923 assessed as inhibition of bacterial growth measured after 24 hrs by CLSI based broth microdilution method; format: functional
Staphylococcus aureus [4] = test: Potency index, ratio of norfloxacin MIC to test compound MIC for antibacterial activity against Staphylococcus aureus assessed as inhibition of bacterial growth measured after 24 hrs by CLSI based broth microdilution method; format: functional
Pseudomonas aeruginosa [5] = test: Antibacterial activity against Pseudomonas aeruginosa assessed as inhibition of bacterial growth measured after 24 hrs by CLSI based broth microdilution method; format: functional
Staphylococcus aureus [6] = test: Antibacterial activity against Staphylococcus aureus assessed as inhibition of bacterial growth measured after 24 hrs by CLSI based broth microdilution method; format: functional
Acinetobacter baumannii = test: Antibacterial activity against Acinetobacter baumannii assessed as inhibition of bacterial growth measured after 24 hrs by CLSI based broth microdilution method; format: functional
Escherichia coli [7] = test: Antibacterial activity against Escherichia coli ATCC 25922 assessed as inhibition of bacterial growth measured after 24 hrs by CLSI based broth microdilution method; format: functional
Pseudomonas aeruginosa [8] = test: Antibacterial activity against Pseudomonas aeruginosa ATCC 27853 assessed as inhibition of bacterial growth measured after 24 hrs by CLSI based broth microdilution method; format: functional
Staphylococcus aureus [9] = test: Potency index, ratio of sulfisoxazole MIC to test compound MIC for antibacterial activity against Staphylococcus aureus assessed as inhibition of bacterial growth measured after 24 hrs by CLSI based broth microdilution method; format: functional
Klebsiella pneumoniae = test: Antibacterial activity against Klebsiella pneumoniae assessed as inhibition of bacterial growth measured after 24 hrs by CLSI based broth microdilution method; format: functional
Enterococcus faecalis [10] = test: Antibacterial activity against Enterococcus faecalis assessed as inhibition of bacterial growth measured after 24 hrs by CLSI based broth microdilution method; format: functional
Enterococcus faecalis [11] = test: Bactericidal activity against Enterococcus faecalis assessed as reduction in colony forming units at 4 times MIC measured after 1.5 to 6 hrs by time-kill kinetics assay; format: functional; conditions: time 1.5-6 hrs
Cell membrane [12] = test: Disruption of membrane integrity in Escherichia coli ATCC 25922 assessed as membrane damage by measuring PI fluorescence at 1 to 8 times MIC incubated for 8 hrs by PI staining based analysis; format: subcellular
Erythrocyte [13] = test: Hemolytic activity in human RBC at 512 ug/ml incubated for 2 hrs by microplate reader analysis; format: toxicity, cell-based; conditions: dose 512 µg/ml
Cell membrane [14] = test: Disruption of membrane integrity in Enterococcus faecalis assessed as membrane damage by measuring increase in red fluorescence at 2 to 8 times MIC incubated for 8 hrs by PI staining based fluorescence microscopic analysis; format: subcellular
Cell membrane [15] = test: Induction of membrane damage in Enterococcus faecalis assessed as increase in protein leakage measured after 6 hrs by Bradford assay; format: subcellular; conditions: DDE = dose-dependent effect
Enterococcus faecalis [16] = test: Antibiofilm activity against Enterococcus faecalis assessed as reduction in biofilm formation at upto 8 times MIC measured after 24 hrs by crystal violet staining based analysis relative to control; format: functional; set-up: scale not given: the % may be the effect or the level left
Enterococcus faecalis [17] = test: Induction of intracellular ROS production in Enterococcus faecalis assessed as fold increase in intracellular ROS level at 0.25 ug/ml incubated for 6 hrs by DCFH-DA assay relative to control; format: functional; conditions: dose 0.25 µg/ml
Calf thymus DNA [18] = test: Binding affinity to calf thymus DNA assessed as compound-DNA complex formation by measuring hypochromic shift by UV-visible absorption spectrophotometric method; format: nucleic-acid assay; conditions: Bos taurus
Cell membrane [19] = test: Disruption of membrane integrity in Enterococcus faecalis assessed as membrane damage by measuring PI-DNA complex formation at 2 times MIC incubated for 20 to 200 mins by PI staining based analysis; conditions: time 20-200 min, TDE = time-dependent effect
Calf thymus DNA [20] = test: Binding affinity to calf thymus DNA assessed as DNA intercalation by neutral red dye uptake method; format: nucleic-acid assay; conditions: Bos taurus
Enterococcus faecalis [21] = test: Induction of intracellular ROS production in Enterococcus faecalis assessed as fold increase in intracellular ROS level at 2 ug/ml incubated for 6 hrs by DCFH-DA assay relative to control; format: functional; conditions: dose 2 µg/ml
Cell membrane [22] = test: Induction of membrane depolarization in Enterococcus faecalis assessed as increase in fluorescence intensity at 1 times MIC measured after 10 to 60 mins by diSC35 dye based fluorescence assay; format: subcellular; conditions: time 10-60 min, TDE = time-dependent effect
Erythrocyte [23] = test: Hemolytic activity in human RBC assessed as morphological changes at 512 ug/ml incubated for 2 hrs by microscopic analysis; format: toxicity, cell-based; conditions: dose 512 µg/ml
Cell membrane [24] = test: Disruption of membrane integrity in Enterococcus faecalis assessed as membrane damage by measuring PI fluorescence at 1 to 8 times MIC incubated for 8 hrs by PI staining based analysis; format: subcellular
Enterococcus faecalis [25] = test: Antibiofilm activity against Enterococcus faecalis assessed as reduction in biofilm formation at MIC measured after 24 hrs by crystal violet staining based analysis relative to control; format: functional; set-up: scale not given: the % may be the effect or the level left
Staphylococcus aureus [26] = test: Potency index, ratio of norfloxacin MIC to test compound MIC for antibacterial activity against methicillin-resistant Staphylococcus aureus N315 assessed as inhibition of bacterial growth measured after 24 hrs by CLSI based broth microdilution method; format: functional

Structure (SMILES)	MIC (Escherichia coli [1]) [µg/mL]	MIC (Staphylococcus aureus [2]) [µg/mL]	MIC (Staphylococcus aureus [3]) [µg/mL]	MIC (Pseudomonas aeruginosa [5]) [µg/mL]	MIC (Staphylococcus aureus [6]) [µg/mL]	MIC (Acinetobacter baumannii) [µg/mL]	MIC (Escherichia coli [7]) [µg/mL]	MIC (Pseudomonas aeruginosa [8]) [µg/mL]	MIC (Klebsiella pneumoniae) [µg/mL]	MIC (Enterococcus faecalis [10]) [µg/mL]	also measured
CCCCOP(=O)(OCCCC)C(Nc1ccc(S(=O)(=O)Nc2onc(C)c2C)cc1)c1cc(O)c2c(c1)C(=O)c1cccc(O)c1C2=O (stereo not drawn)	256 (≈ 360 µM)	64 (≈ 89.9 µM)	2 (≈ 2.81 µM)	8 (≈ 11.2 µM)	4 (≈ 5.62 µM)	8 (≈ 11.2 µM)	8 (≈ 11.2 µM)	256 (≈ 360 µM)	16 (≈ 22.5 µM)	128 (≈ 180 µM)	Ratio (Staphylococcus aureus [4]): 2; Ratio (Staphylococcus aureus [9]): 4
CCOP(=O)(OCC)C(Nc1ccc(S(=O)(=O)Nc2ncccn2)cc1)c1cc(O)c2c(c1)C(=O)c1cccc(O)c1C2=O (stereo not drawn)	2 (≈ 3.13 µM)	8 (≈ 12.5 µM)	2 (≈ 3.13 µM)	8 (≈ 12.5 µM)	128 (≈ 200 µM)	16 (≈ 25.1 µM)	0.25 (≈ 0.391 µM)	0.25 (≈ 0.391 µM)	0.5 (≈ 0.783 µM)	0.25 (≈ 0.391 µM)	Activity (Enterococcus faecalis [11]): 3 log10CFU/ml; Activity (Cell membrane [12]): Active; Activity (Erythrocyte [13]): Non-Toxic; Activity (Cell membrane [14]): Active; Activity (Cell membrane [15]): Dde; Activity (Enterococcus faecalis [16]): <=79%; fold change (FC) (Enterococcus faecalis [17]): 1.2; Activity (Calf thymus DNA [18]): Active; Activity (Cell membrane [19]): Tde; Activity (Calf thymus DNA [20]): Active; fold change (FC) (Enterococcus faecalis [21]): 2.4; Activity (Cell membrane [22]): Tde; Activity (Erythrocyte [23]): Non-Toxic; Activity (Cell membrane [24]): Active; Activity (Enterococcus faecalis [25]): 30%
CCOP(=O)(OCC)C(Nc1ccc(S(=O)(=O)Nc2ccccn2)cc1)c1cc(O)c2c(c1)C(=O)c1cccc(O)c1C2=O (stereo not drawn)	256 (≈ 402 µM)	2 (≈ 3.14 µM)	128 (≈ 201 µM)	256 (≈ 402 µM)	64 (≈ 100 µM)	128 (≈ 201 µM)	256 (≈ 402 µM)	64 (≈ 100 µM)	256 (≈ 402 µM)	64 (≈ 100 µM)	Ratio (Staphylococcus aureus [26]): 4
